Patent publication US6525001B1, “Substituted pyrimidine and pyridine herbicides” (Mid-American Commercialization Corporation, priority 1997, dated 2003)

Key:
Type in all cases: in vivo
[1] = system: johnsongrass (Sorghum halepense); experiment: Test C
[2] = system: guineagrass (Panicum maximum); experiment: Test E pre-/postemergence/post directed; set-up: key: 0 is no effect; 100 is complete control
Procedure, shortened: (§1)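 Three application modes in greenhouse pots: preemergence soil spray, postemergence foliar spray at two to four leaves, and post-directed spray to soil and plant base. Ratings of 0–100 injury, assigned visually against untreated controls 13 to 21 days later.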

[3] = system: tall mallow (Malva sylvestris); experiment: Test E pre-/postemergence/post directed; set-up: key: 0 is no effect; 100 is complete control; settings: PREEMERGENCE
Procedure, shortened: as §1

[4] = system: common purslane (Portulaca oleracea); experiment: Test E pre-/postemergence/post directed; set-up: key: 0 is no effect; 100 is complete control
Procedure, shortened: as §1

[5] = system: dallisgrass (Paspalum dilatatum); experiment: Test E pre-/postemergence/post directed; set-up: key: 0 is no effect; 100 is complete control
Procedure, shortened: as §1

[6] = system: blackgrass (Alopecurus myosuroides); experiment: Test B pre-/postemergence; set-up: key: 0 is no effect; 10 is complete control
Procedure, shortened: (§2)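 Seeds were planted and sprayed preemergence, while plants at 2 to 18 cm (1- to 4-leaf stage) were sprayed postemergence at the same time, with test chemical in a non-phytotoxic solvent mixture containing surfactant. After twelve to sixteen days in a greenhouse, injury was rated visually against untreated controls on a 0–10 scale.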

[7] = system: cocklebur (Xanthium strumarium); experiment: Test B pre-/postemergence; set-up: key: 0 is no effect; 10 is complete control
Procedure, shortened: as §2

[8] = system: broadleaf signalgrass (Brachiaria decumbens); experiment: Test B pre-/postemergence; set-up: key: 0 is no effect; 10 is complete control
Procedure, shortened: as §2

[9] = system: momingglory (Ipomoea hederacea); experiment: Test B pre-/postemergence; set-up: key: 0 is no effect; 10 is complete control
Procedure, shortened: as §2

[10] = system: pigweed (Amaranthus retroflexus); experiment: Test B pre-/postemergence; set-up: key: 0 is no effect; 10 is complete control
Procedure, shortened: as §2

[11] = system: redroot pigweed (Amaranthus retroflexus); experiment: Test C; set-up: key: 0 was no effect; 100 was complete control
[12] = system: arrowleaf sida (Sida rhombifolia); experiment: Test C

SMILES: Cc1cnc(-c2ccc(C(F)(F)F)cc2)nc1Cn1ccc(C(F)(F)F)n1 [compound 9]
- Plant response rating, Johnsongrass ([1]; POSTEMERGENCE, Rate 35 g/ha): 10
- Plant response rating, Johnsongrass ([1]; POSTEMERGENCE, Rate 140 g/ha): 50
- Plant response rating, Johnsongrass ([1]; PREEMERGENCE, Rate 35 g/ha): 65
- Plant response rating, Johnsongrass ([1]; PREEMERGENCE, Rate 70 g/ha): 85
- Plant response rating, Johnsongrass ([1]; PREEMERGENCE, Rate 140 g/ha): 95
- Plant response rating, Guineagrass ([2]; POSTEMERGENCE, Rate 125 g/ha): 35
- Plant response rating, Guineagrass ([2]; POSTEMERGENCE, Rate 250 g/ha): 35
- Plant response rating, Guineagrass ([2]; PREEMERGENCE, Rate 32 g/ha): 20
- Plant response rating, Guineagrass ([2]; PREEMERGENCE, Rate 64 g/ha): 85
- Plant response rating, Guineagrass ([2]; PREEMERGENCE, Rate 125 g/ha): 90
- Plant response rating, Guineagrass ([2]; PREEMERGENCE, Rate 250 g/ha): 100
- Plant response rating, Tall Mallow ([3]; Rate 32 g/ha): 100
- Plant response rating, Tall Mallow ([3]; Rate 64 g/ha): 100
- Plant response rating, Tall Mallow ([3]; Rate 125 g/ha): 100
- Plant response rating, Tall Mallow ([3]; Rate 250 g/ha): 100
- Plant response rating, Com. purslane ([4]; POSTEMERGENCE, Rate 125 g/ha): 80
- Plant response rating, Com. purslane ([4]; POSTEMERGENCE, Rate 250 g/ha): 80
- Plant response rating, Com. purslane ([4]; PREEMERGENCE, Rate 32 g/ha): 100
- Plant response rating, Com. purslane ([4]; PREEMERGENCE, Rate 64 g/ha): 100
- Plant response rating, Com. purslane ([4]; PREEMERGENCE, Rate 125 g/ha): 100
- Plant response rating, Com. purslane ([4]; PREEMERGENCE, Rate 250 g/ha): 100
- Plant response rating, Dallisgrass ([5]; POSTEMERGENCE, Rate 125 g/ha): 10
- Plant response rating, Dallisgrass ([5]; POSTEMERGENCE, Rate 250 g/ha): 20
- Plant response rating, Dallisgrass ([5]; PREEMERGENCE, Rate 32 g/ha): 85
- Plant response rating, Dallisgrass ([5]; PREEMERGENCE, Rate 64 g/ha): 100
- Plant response rating, Dallisgrass ([5]; PREEMERGENCE, Rate 125 g/ha): 100
- Plant response rating, Dallisgrass ([5]; PREEMERGENCE, Rate 250 g/ha): 100
- Plant response rating, Blackgrass ([6]; Rate 62 g/ha, Postemergence): 3
- Blackgrass plant response rating ([6]; Rate 62 g/ha, Preemergence): 4
- Plant response rating, Blackgrass ([6]; Rate 125 g/ha, Postemergence): 8
- Blackgrass plant response rating ([6]; Rate 125 g/ha, Preemergence): 9
- Plant response rating, Blackgrass ([6]; Rate 250 g/ha, Postemergence): 8
- Plant response rating, Blackgrass ([6]; Rate 250 g/ha, Preemergence): 10
- Plant response rating, Blackgrass ([6]; Rate 500 g/ha, Postemergence): 9
- Plant response rating, Blackgrass ([6]; Rate 500 g/ha, Preemergence): 10
- Plant response rating, Cocklebur ([7]; Rate 62 g/ha, Postemergence): 9
- Cocklebur plant response rating ([7]; Rate 62 g/ha, Preemergence): 0
- Plant response rating, Cocklebur ([7]; Rate 125 g/ha, Postemergence): 9
- Cocklebur plant response rating ([7]; Rate 125 g/ha, Preemergence): 2
- Plant response rating, Cocklebur ([7]; Rate 250 g/ha, Postemergence): 10
- Plant response rating, Cocklebur ([7]; Rate 250 g/ha, Preemergence): 9
- Plant response rating, Cocklebur ([7]; Rate 500 g/ha, Postemergence): 9
- Plant response rating, Cocklebur ([7]; Rate 500 g/ha, Preemergence): 9
- Plant response rating, B. signalgrass ([8]; Rate 62 g/ha, Postemergence): 5
- B. signalgrass plant response rating ([8]; Rate 62 g/ha, Preemergence): 8
- Plant response rating, B. signalgrass ([8]; Rate 125 g/ha, Postemergence): 8
- B. signalgrass plant response rating ([8]; Rate 125 g/ha, Preemergence): 9
- Plant response rating, B. signalgrass ([8]; Rate 250 g/ha, Postemergence): 9
- Plant response rating, B. signalgrass ([8]; Rate 250 g/ha, Preemergence): 10
- Plant response rating, B. signalgrass ([8]; Rate 500 g/ha, Postemergence): 9
- Plant response rating, B. signalgrass ([8]; Rate 500 g/ha, Preemergence): 10
- Plant response rating, Morningglory ([9]; Rate 62 g/ha, Postemergence): 10
- Morningglory plant response rating ([9]; Rate 62 g/ha, Preemergence): 8
- Plant response rating, Morningglory ([9]; Rate 125 g/ha, Postemergence): 10
- Morningglory plant response rating ([9]; Rate 125 g/ha, Preemergence): 10
- Plant response rating, Morningglory ([9]; Rate 250 g/ha, Postemergence): 10
- Plant response rating, Morningglory ([9]; Rate 250 g/ha, Preemergence): 10
- Plant response rating, Morningglory ([9]; Rate 500 g/ha, Postemergence): 10
- Plant response rating, Morningglory ([9]; Rate 500 g/ha, Preemergence): 10
- Plant response rating, Redroot pigweed ([10]; Rate 62 g/ha, Postemergence): 10
- Redroot pigweed plant response rating ([10]; Rate 62 g/ha, Preemergence): 9
- Plant response rating, Redroot pigweed ([10]; Rate 125 g/ha, Postemergence): 10
- Redroot pigweed plant response rating ([10]; Rate 125 g/ha, Preemergence): 10
- Plant response rating, Redroot pigweed ([10]; Rate 250 g/ha, Postemergence): 10
- Plant response rating, Redroot pigweed ([10]; Rate 250 g/ha, Preemergence): 10
- Plant response rating, Redroot pigweed ([10]; Rate 500 g/ha, Postemergence): 10
- Plant response rating, Redroot pigweed ([10]; Rate 500 g/ha, Preemergence): 10
- Plant response rating, Redroot pigweed ([11]; POSTEMERGENCE, Rate 35 g/ha): 60
- Plant response rating, Redroot pigweed ([11]; POSTEMERGENCE, Rate 70 g/ha): 70
- Plant response rating, Redroot pigweed ([11]; PREEMERGENCE, Rate 35 g/ha): 100
- Plant response rating, Redroot pigweed ([11]; PREEMERGENCE, Rate 70 g/ha): 100
- Plant response rating, Redroot pigweed ([11]; PREEMERGENCE, Rate 140 g/ha): 100
- Plant response rating, Arrowleaf sida ([12]; POSTEMERGENCE, Rate 35 g/ha): 80
- Plant response rating, Arrowleaf sida ([12]; POSTEMERGENCE, Rate 70 g/ha): 90
- Plant response rating, Arrowleaf sida ([12]; POSTEMERGENCE, Rate 140 g/ha): 90
- Plant response rating, Arrowleaf sida ([12]; PREEMERGENCE, Rate 35 g/ha): 90
- Plant response rating, Arrowleaf sida ([12]; PREEMERGENCE, Rate 70 g/ha): 95
- Plant response rating, Arrowleaf sida ([12]; PREEMERGENCE, Rate 140 g/ha): 95
